This is an account of results in patent US20210299109A1, “AGENTS FOR TREATING CANCER AND METHODS FOR IDENTIFYING SAID AGENTS” (MINERVA BIOTECHNOLOGIES CORPORATION, priority 2017, published 2021).

The subject of series [1] is human naïve state stem cells. Briefly: stem cell drug screen on naïve state stem cells. It counts as cell-based. The settings on record: for effect on naïve stem cells: pluripotency, growth, differentiation (first panel, FIG. 2, 7-10): 6 uM, 3 days, with or without NME7AB. The procedure: (§1) The stem cell screening assay, was performed in both the presence and absence of the stem cell growth factors: NME7AB for growing naïve stem cells or FGF for growing primed stem cells. If the cognate growth factor was present, then the biological or small molecule would have to compete away the growth factor to get an effect. Therefore, we expected to see more of an effect when the growth factor, FGF for primed stem cells or NME7AB or NME1 dimers for naïve stem cells, was absent. The effect of the compounds on stem cells was visually determined and compounds were ranked 0-4, with 4 being the greatest effect and 0 being no observable effect. The major effect that was observed was a change from pluripotent stem cell morphology, which is a cobblestone pattern of small round cells with a large nucleus to cytoplasm ratio, to that of differentiating stem cells, which are elongated, large and flattened cells with a smaller nucleus to cytoplasm ratio. […] […] In this particular case, the naïve state stem cells were maintained in a naïve state by culturing in a media containing NME7AB or NME1 dimers. However, other methods such as 2i and 5i (Silva et al., 2008, Nichols and Smith, 2009, Theunissen et al., 2014)] can be used to maintain stem cells in a more naïve state. In this case primed state stem cells were cultured in bFGF over a layer of MEFs, although it is known that any bFGF containing media will maintain stem cells in the primed state.
Percent inhibition of cancer cell migration was performed in a wound healing assay. The percent area that the invading cancer cells occupied, in the presence of a drug candidate compared to the controls, was quantified by Image J cell software which enables cell counting from photographs. IC50's were calculated by performing migration experiments at several compound concentrations and then applying Hill's equation. Inhibition of cancer cell proliferation was quantified by automated cell counting in the presence or absence of a drug candidate. Here, the inhibition of cancer cell proliferation was scored 1 if proliferation was inhibited by 25%, 2 if inhibited by 50%, 3 for 75% and 4 for the highest degree of inhibition of proliferation, and 0 for the lowest. The effect of the drug candidates on stem cell pluripotency or proliferation was scored by eye, based on cell morphology and cell density, with 0 being no change in morphology or cell number and 4 being the most profound effect, with the stem cells taking on the morphology of a differentiating cell, along with much fewer cells indicative of inhibition of proliferation. As an example, FIGS. 30A-30F show photographs of naïve stem cell, primed stem cell and fibroblast controls. FIGS. 31A-31F show the effect of compounds of the invention on naïve state stem cells, where the number of ‘+’ signs indicates the score from 0-4 of ability of compound to inhibit pluripotency, proliferation of naïve stem cells or ability to induce their differentiation. […] FIGS. 36-44 and 65-87 show photographs and IC50 graphs of the compounds of the invention, inhibiting cancer cell migration and invasion. Cancer cell migration is a hallmark of metastatic cancer.
Stem cells whether embryonic or induced pluripotent stem (iPS) cells were cultured in a minimal, serum-free media that contained human recombinant NME7AB at a concentration of 2-32 nM wherein 4-8 nM is preferred and 4 nM is more preferred. […]

For series [2], the system named is human primed state stem cells. The experiment in a line: stem cell drug screen on primed state stem cells. The series is classed as cell-based. The procedure:
as §1
Percent inhibition of cancer cell migration was performed in a wound healing assay. The percent area that the invading cancer cells occupied, in the presence of a drug candidate compared to the controls, was quantified by Image J cell software which enables cell counting from photographs. IC50's were calculated by performing migration experiments at several compound concentrations and then applying Hill's equation. Inhibition of cancer cell proliferation was quantified by automated cell counting in the presence or absence of a drug candidate. Here, the inhibition of cancer cell proliferation was scored 1 if proliferation was inhibited by 25%, 2 if inhibited by 50%, 3 for 75% and 4 for the highest degree of inhibition of proliferation, and 0 for the lowest. The effect of the drug candidates on stem cell pluripotency or proliferation was scored by eye, based on cell morphology and cell density, with 0 being no change in morphology or cell number and 4 being the most profound effect, with the stem cells taking on the morphology of a differentiating cell, along with much fewer cells indicative of inhibition of proliferation. As an example, FIGS. 30A-30F show photographs of naïve stem cell, primed stem cell and fibroblast controls. […]

The test system of another series is human fibroblasts. Briefly: effect on fibroblast proliferation (surrogate for normal cells). It counts as cell-based. To be noted: 500 nM final concentration. The source says: However, fibroblasts are more differentiated than stem cells but are able to self-replicate for defined periods of time. We tested selected compounds of the invention to determine if these compounds were just cytotoxic or if they selectively affected stem cells and, importantly, cancer cells, but not normal, healthy cells. Here, we used fibroblasts as a surrogate for normal cells. […] […] Each compound was scored for its effect on fibroblast proliferation where “+” indicates 25% inhibition of fibroblast growth, “++” 50% inhibition and “+++” 75% inhibition of growth.

In the next series the test system is naïve stem cells. Briefly: RT-PCR of differentiation markers and super-enhancer target genes in naïve stem cells. The series is classed as cell-based, human. From the text: The genes whose expression increased as a result of treatment with the compounds of the invention, in a concentration dependent manner, are fibronectin and vimentin, which both increase as stem cells initiate differentiation and NF1, which is one of the first genes to increase when stem cells begin to differentiate down the neural lineage. […] Thus, compounds of the invention that induce markers of differentiation are useful for the treatment of cancers, because cancer cells, by definition, have de-differentiated, which allows them to continually self-replicate. […] Expression of metastatic marker E-cadherin was reduced and expression of differentiation markers fibronectin, vimentin and NF1 were increased. Novel compounds of the invention are highly specific. […] Although we discovered that NME1 dimers, NME7AB and NME7-X1 are all activating ligands of the MUC1* growth factor receptor and they bind to its extracellular domain, we have developed ample evidence that both NME7AB and NME7-X1 have other binding partners and can exert oncogenic effects, independent of MUC1*.
We first used RT-PCR to measure expression of these super-enhancer target genes and other genes of interest in naïve stem cells in the presence or absence of a few compounds of the invention. […] We also measured expression of microRNA-145, in response to treatment with compounds of the invention. […]

A further series relates to cancer cells. To be noted: cited from earlier work.
Series [3] concerns MUC1* positive cancer cells. To be noted: in vitro; cited from earlier work.

For `Cc1sc2c(c1C)C(c1ccc(Cl)cc1)=N[C@@H](CC(=O)OC(C)(C)C)c1nnc(C)n1-2` [JQ1(+)], the “effect on naïve stem cell growth” value in series [1] is reported as “inhibitory effect”. For the same compound, the “induction of differentiation and growth inhibition of naïve state stem cells” value in series [1] (500 nM or 1 uM, cells cultured in NME7AB or NME1 dimers) is recorded as “dramatically induced differentiation”. Besides, the “effect on primed stem cell growth” value in series [2] is given as “not primed stem cell growth”. Moreover, the “effect on the size of primed stem cell colonies” value in series [2] (treated for 3 days, 500 nM or 1 uM) was “modest effect”. Moreover, the “induction of differentiation of primed state stem cells” value in series [2] (treated for 3 days, JQ1 at 500 nM or 1 uM, bFGF absent) was “None of these agents appeared to induce differentiation”. The effect on fibroblasts entry in the series on human fibroblasts is given as “same effect on fibroblasts as it does on primed state stem cells”. Besides, the “up-regulation of markers of differentiation (fibronectin, vimentin, NF1) in naïve stem cells” value with naïve stem cells is “did not cause up-regulation of markers of differentiation”.

For `CCCCNC(=O)N1CCc2c([nH]c3ccccc23)C1C(C)c1ccccc1` (centres unmarked) [MN1130], the “effect on naïve stem cells: pluripotency, growth, differentiation (first panel, FIG. 2, 7-10)” value in series [1] is recorded as “induced differentiation”. In series [2] (6 uM, 3 days, with or without FGF), the “effect on primed stem cells (first panel, FIG. 2-6)” value is “modest effect”.

Turning to `Cc1[nH]c(/C=C2\C(=O)Nc3ccc(S(=O)(=O)N(C)c4cccc(Cl)c4)cc32)c(C)c1C(=O)N1CCN(C)CC1` [SU11274], the “up-regulation of markers of differentiation (fibronectin, vimentin, NF1) in naïve stem cells” value in the series on naïve stem cells was “did not cause up-regulation of markers of differentiation”.

Take “FLR peptide: synthetic peptide corresponding to the extracellular domain of MUC1*, FLR also known as PSMGFR (SEQ ID NO:3) (GTINVHDVETQFNQYKTEAASRYNLTISDVSVSDVPFPFSAQSGA; the extracellular domain of Native Primary Sequence of the MUC1 Growth Factor Receptor (nat-PSMGFR - an example of “PSMGFR”))”: in series [1], the “effect on naïve stem cells: pluripotency, growth, differentiation (first panel, FIG. 2, 7-10)” value is recorded as “induced differentiation”. The “inhibition of the transition of regular cancer cells to metastatic cancer cells” value in the series on cancer cells is recorded as “inhibit the transition of regular cancer cells to metastatic cancer cells”.

`COC(=O)c1ccc(C2c3[nH]c4ccccc4c3CCN2C(=O)c2cccc(Cl)c2)cc1` (centres unmarked) [MN0642]: the “effect on naïve stem cells: pluripotency, growth, differentiation (first panel, FIG. 2, 7-10)” value in series [1] was “induced differentiation”. Moreover, the “inhibition of growth of cancer cells” value in series [3] is listed as “inhibit the growth of cancer cells in vitro”.
